Data taken from ChEMBL document CHEMBL1201862, “PubChem BioAssay data set” (2004).
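Following 48 hours of exposure in 96-well plates, responses at five concentrations were used to interpolate endpoints linearly. The concentration for 50% growth inhibition is given as GI50.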 Activity calls are given as the source filed them. Rule as the data show it: active = GI50 up to about 1.1 µM and inactive = higher.

Experiments:
Experiment in all cases: DTP human tumour cell line panel, 48 h
[1] = test system: UACC-62
[2] = test system: K562
[3] = test system: OVCAR-8
[4] = test system: NCI-H226
[5] = test system: UACC-257
[6] = test system: HOP-92
[7] = test system: HCT-116
[8] = test system: M14
[9] = test system: SN12C
[10] = test system: Malme-3M
[11] = test system: EKVX
[12] = test system: Hs-578T
[13] = test system: NCI-H522
[14] = test system: MDA-N
[15] = test system: CAKI-1
[16] = test system: SF-539
[17] = test system: HOP-62
[18] = test system: OVCAR-5
[19] = test system: MDA-MB-231
[20] = test system: OVCAR-4

| Compound | GI50 [1] | GI50 [2] | GI50 [3] | GI50 [4] | GI50 [5] | GI50 [6] | GI50 [7] | GI50 [8] | GI50 [9] | GI50 [10] | GI50 [11] | GI50 [12] | GI50 [13] | GI50 [14] | GI50 [15] | GI50 [16] | GI50 [17] | GI50 [18] | GI50 [19] | GI50 [20] |
| --- | --- | --- | --- | --- | --- | --- | --- | --- | --- | --- | --- | --- | --- | --- | --- | --- | --- | --- | --- | --- |
| CS(=O)(=O)O.[Ag] | 17.9 µM (inactive) | 2.23 µM (inactive) | 31.6 µM (inactive) | 25.1 µM (inactive) | 10.2 µM (inactive) | 2.14 µM (inactive) | 5.04 µM (inactive) | 3.17 µM (inactive) | 19.1 µM (inactive) | 1.92 µM (inactive) | 21.9 µM (inactive) | 37.7 µM (inactive) | 1.92 µM (inactive) | 7.1 µM (inactive) | 17.8 µM (inactive) | 17.3 µM (inactive) | 25.4 µM (inactive) | 19.3 µM (inactive) | 21.3 µM (inactive) | 2.33 µM (inactive) |
| COc1cc2nc3n(c(=O)c2cc1OC)-c1ccc([N+](=O)[O-])cc1C3=O | 30.5 µM (inactive) | 31.5 µM (inactive) | 57.9 µM (inactive) | 26.1 µM (inactive) | 60.5 µM (inactive) | > 100 µM (inactive) | 34.8 µM (inactive) | 52.1 µM (inactive) | 66.7 µM (inactive) | 34.5 µM (inactive) | 36.9 µM (inactive) | > 100 µM (inactive) | 25.5 µM (inactive) | 30.5 µM (inactive) | 5.06 µM (inactive) | > 100 µM (inactive) | > 100 µM (inactive) | > 100 µM (inactive) | 46 µM (inactive) | 15 µM (inactive) |
| CC(C)=CCC/C(=C/CC/C(=C\CCc1ccoc1)C(=O)O)C(=O)O | > 100 µM (inactive) | > 100 µM (inactive) | > 100 µM (inactive) | > 100 µM (inactive) | > 100 µM (inactive) | > 100 µM (inactive) | > 100 µM (inactive) | > 100 µM (inactive) | > 100 µM (inactive) | > 100 µM (inactive) | > 100 µM (inactive) | > 100 µM (inactive) | > 100 µM (inactive) | > 100 µM (inactive) | > 100 µM (inactive) | > 100 µM (inactive) | > 100 µM (inactive) | > 100 µM (inactive) | > 100 µM (inactive) | > 100 µM (inactive) |
| Cc1cc(N(CCC#N)S(=O)(=O)c2ccccc2)ccc1/C=N/c1ccc(C(=O)O)cc1 | 17.4 µM (inactive) | 7.96 µM (inactive) | 7.71 µM (inactive) | 21.8 µM (inactive) | 16.9 µM (inactive) | > 100 µM (inactive) | 7.87 µM (inactive) | 9.77 µM (inactive) | 6.21 µM (inactive) | 4.61 µM (inactive) | 17.9 µM (inactive) | 56 µM (inactive) | 5.51 µM (inactive) | > 100 µM (inactive) | 2.23 µM (inactive) | 15.2 µM (inactive) | 31 µM (inactive) | 20.3 µM (inactive) | > 100 µM (inactive) | 5.62 µM (inactive) |
| Cn1c(Sc2ccc(-c3cccnc3)n2C)ccc1-c1cccnc1 | 14.9 µM (inactive) | 3.12 µM (inactive) | 18.1 µM (inactive) | 24.5 µM (inactive) | 12.4 µM (inactive) | 12.9 µM (inactive) | 8.79 µM (inactive) | 17.1 µM (inactive) | 16.8 µM (inactive) | 11.1 µM (inactive) | 24 µM (inactive) | 3.7 µM (inactive) | 10.3 µM (inactive) | 8.57 µM (inactive) | 19.1 µM (inactive) | 20.7 µM (inactive) | 17.6 µM (inactive) | 22.9 µM (inactive) | 18.2 µM (inactive) | 14.6 µM (inactive) |
| CCC(C)C1NC(=O)C2CCCN2C(=O)C(CC2CO2)OC(=O)CCNC(=O)C(C)N(C)C(=O)C(C(C)C)N(C)C1=O (stereo not given) | 0.0209 µM (active) | 0.0946 µM (active) | 0.22 µM (active) | > 5.08 µM (inactive) | < 0.01 µM (active) | > 8.22 µM (inactive) | < 0.0279 µM (active) | 0.0182 µM (active) | > 100 µM (inactive) | 0.0142 µM (active) | 35.4 µM (inactive) | > 100 µM (inactive) | 3.3 µM (inactive) | 0.181 µM (active) | 0.993 µM (active) | 0.199 µM (active) | 0.112 µM (active) | 1.43 µM (inactive) | > 22.9 µM (inactive) | 3.11 µM (inactive) |
| O=P1(NCCCl)OCCC(OO)N1CCCl (stereo not given) | 21.1 µM (inactive) | 19.4 µM (inactive) | 46.1 µM (inactive) | > 100 µM (inactive) | 32.1 µM (inactive) | 16.8 µM (inactive) | 15.8 µM (inactive) | 21.9 µM (inactive) | 37.4 µM (inactive) | 17.3 µM (inactive) | > 100 µM (inactive) | 50.4 µM (inactive) | 11.5 µM (inactive) | 29.3 µM (inactive) | 18.3 µM (inactive) | 16.9 µM (inactive) | 52.4 µM (inactive) | 42.9 µM (inactive) | > 100 µM (inactive) | 20.5 µM (inactive) |
